Measured values: US10265321B2, “Uses of salt-inducible kinase (SIK) inhibitors” (Dana-Farber Cancer Institute, Inc., priority 2014, dated 2019)

Tests used:
BMDCs = assay: Cell viability of BMDCs (CellTiter-Glo, cellular ATP); format: cell-based, mouse; conditions: Mus musculus, BMDC; zymosan-stimulated BMDCs; read-out: Viability loss EC50
Experimental: (§1) Bone marrow-derived DCs were differentiated from C57BL/6 bone marrow in the presence of GM-CSF-conditioned media. CD11c^+ CX3CR1^hi myeloid cells and CD11c^+ CX3CR1^− DCs were isolated from the small intestine lamina propria of Cx3cr1^eGFP/+ mice (12). Detection of cell-surface Thy1.1 expression on BMDCs from 10BiT reporter mice was conducted as described previously (24). Cell viability was estimated by change in total cellular ATP levels using CellTiterGlo assays (Promega). Preparation of recombinant SIK proteins and IC50 measurements were conducted as described previously (21). Total RNA was extracted using a NucleoSpin 96 RNA isolation kit (Macherey-Nagel) followed by cDNA synthesis and multiplex RT-PCR using a microfluidic dynamic array (Fluidigm). The concentrations of TNF-α, IL-6, IL-10, IL-12p40, IL-1β and RANTES in culture supernatants were detected using a FlexSet Cytometric bead array (BD Biosciences). Alternatively, IL-10 secretion was quantified using ELISA (BD Biosciences) or AlphaLISA (PerkinElmer) assays. NO production was estimated based on nitrate content in culture medium using the Greiss reagent.
BMDCs were seeded into black 384-well plates (Corning) at 20,000 cells/well in 40 μL complete DMEM using a Multidrop COMBI (Thermal Scientific) followed by incubation at 37° C. for 2 hr to allow for plate adherence. SIK inhibitors (100 nL/well) were pin-transferred from concentrated DMSO stocks using CyBi-Well Vario (CyBio) into duplicate plates. For each treatment plate, 32 out of 384 wells were pinned with DMSO as negative control and 32 out of 384 wells were pinned with PGE2 (5 μM final concentration). Two days after SIK inhibitor treatment, BMDCs were stimulated with zymosan (4 μg/mL final concentration) dispersed in culture medium (20 μL/well) using a Multidrop COMBI. After 18 hr, 5 μL of resulting supernatant was transferred from the culture plate to white 384-well AlphaLISA plates (Perkin Elmer) using a CyBi-Well Vario. IL-10 abundance in the supernatants was determined using an AlphaLISA assay (PerkinElmer) according to the manufacture's protocol and signal intensity measured using an EnVision multimode plate reader. SIK inhibitor activity was expressed as a % of the differences between the mean abundance of IL-10 in PGE2 versus DMSO wells on a per plate basis. Cell viability assays were conducted on the same tissue culture plates as the IL-10 assay. First media was removed and replaced by solution of 50% (vol/vol) CellTiter-Glo (Promega) in PBS. Luminescence was read using an Envision multimode plate reader, and signal intensity calculated relative to DMSO control wells on a per plate basis.

SIK2 = biological target: T1, SIK2 (Homo sapiens, UniProt Q9H0K1); assay: Protein kinase assay ([γ-32P] ATP, phosphocellulose paper) against SIK2; format: biochemical; conditions: for remaining activity at 0.1 µM / remaining activity at 1 µM: DMSO set to 100%; for remaining activity at 0.1 µM: read-out: Activity of protein kinase treated with 0.1 μM of I-1 (% control (DMSO)) SIK2; for remaining activity at 1 µM: read-out: Activity of protein kinase treated with 1 μM of I-1 (% control (DMSO)) SIK2; for IC50: read-out: Enzyme Inhibition IC50 SIK2
T1 construct: made in house
T1 sequence (Q9H0K1 whole entry): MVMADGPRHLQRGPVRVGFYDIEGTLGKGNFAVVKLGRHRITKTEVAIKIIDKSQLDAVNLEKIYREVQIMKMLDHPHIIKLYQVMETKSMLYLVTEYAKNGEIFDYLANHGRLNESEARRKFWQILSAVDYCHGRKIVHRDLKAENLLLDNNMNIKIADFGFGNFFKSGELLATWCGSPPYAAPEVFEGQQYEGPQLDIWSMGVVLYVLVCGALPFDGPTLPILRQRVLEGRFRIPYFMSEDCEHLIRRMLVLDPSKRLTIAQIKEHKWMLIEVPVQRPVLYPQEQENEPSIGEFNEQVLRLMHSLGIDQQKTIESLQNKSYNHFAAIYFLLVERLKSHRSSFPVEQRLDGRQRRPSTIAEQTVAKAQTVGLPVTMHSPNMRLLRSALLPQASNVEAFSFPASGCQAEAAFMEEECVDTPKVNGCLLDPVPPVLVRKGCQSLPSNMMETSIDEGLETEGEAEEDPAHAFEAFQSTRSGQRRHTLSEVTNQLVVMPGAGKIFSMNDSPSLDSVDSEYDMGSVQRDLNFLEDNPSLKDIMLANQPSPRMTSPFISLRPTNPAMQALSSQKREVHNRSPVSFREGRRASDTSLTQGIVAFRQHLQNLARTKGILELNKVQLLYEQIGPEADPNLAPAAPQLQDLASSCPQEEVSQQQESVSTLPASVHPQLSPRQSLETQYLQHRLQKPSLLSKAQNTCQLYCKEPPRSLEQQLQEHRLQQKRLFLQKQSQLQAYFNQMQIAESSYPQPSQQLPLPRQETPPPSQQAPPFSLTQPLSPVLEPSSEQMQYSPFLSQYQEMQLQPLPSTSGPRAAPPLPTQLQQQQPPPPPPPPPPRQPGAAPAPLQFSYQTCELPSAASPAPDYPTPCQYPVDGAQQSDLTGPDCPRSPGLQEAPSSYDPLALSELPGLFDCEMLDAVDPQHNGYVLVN
Experimental: as §1
In another set of experiments, the activities of the SIK inhibitors described herein against SIK were determined according to the methods reported in Hastie et al., Nature Protocols, 2006, 1, 968-971.
This buffer consisted of 50 mM Tris-HCl, pH 7.5, 0.1 mM EGTA, 1 mg ml^−1 bovine serum albumin and 0.1% (vol/vol) 2-mercaptoethanol.
An assay buffer of 500 mM Tris-HCl, pH 7.5, 1 mM EGTA, and 100 mM magnesium acetate was used for the protein kinase assay.
The specific activity of the [γ-^32P] ATP solution was 1×10^5 to 1×10^6 c.p.m. per nmol depending on what was needed to produce an optimal signal/noise ratio. Stocks of nonradioactive (“cold”) ATP were dissolved in 10 mM HEPES, and the pH of the resulting stock solutions was adjusted to 7.4. To measure the concentration of ATP, a sample of such a stock solution was diluted to 20 μM, and the absorbance of the diluted sample was measured at 259 nm. The absorbance of a 20-μM stock solution of ATP at 259 nm was about 0.31. The 1-mM solution of cold ATP was “spiked” with [γ-^32P] ATP to produce a radioactivity of 1×10^5 to 1×10^6 c.p.m. per nmol.
1) The number of assay samples needed was determined based on, e.g., the following considerations: (i) each condition was assayed in duplicate; (ii) two controls containing peptide or protein substrate and ATP but no SIK were included to assess contamination by any free ATP not incorporated into substrate, alongside two controls lacking a peptide or protein substrate but containing ATP and SIK to correct for any incorporation of phosphate into the kinase itself (e.g., autophosphorylation); and (iii) a maximum of 40 samples were assayed manually at one time by a single person. Microcentrifuge tubes were label distinctly and were placed on ice.
4) Dilute the SIK in enzyme dilution buffer and place on ice.
5) Pipette 5 j±l of 10× concentrated assay buffer, 5 j±l peptide or protein substrate (the two “no-substrate” control tubes had 5 j±l water added instead of peptide or protein substrate), and 30 μl distilled water into each tube. Keep the tubes on ice.
6) Add 5 μl diluted SIK to each tube, except for the two “no-enzyme” control tubes, which had 5 μl enzyme dilution buffer added, and still keeping the tubes on ice. In some cases, premixed “cocktails” of assay components were prepared containing peptide or protein substrate, assay buffer, and distilled water to limit the number of additions to each assay tube. Each of steps 7 to 14 was done behind a plexiglass shield.
7) Insert each tube into the water bath at intervals of 15 s to allow the assay mixture to reach 30° C. Begin the SIK reactions by adding 5 μl of 1 mM [γ-^32P] ATP to each tube at intervals of 15 s. Close each tube, vortex for 1 s to mix the contents and immediately replace in a rack in the water bath. Incubate for 10 min at 30° C. […]

remaining activity at 0.1 µM (SIK2) [%]	remaining activity at 1 µM (SIK2) [%]	IC50 (SIK2) [nM]	Structure (SMILES)	EC50 (BMDCs) [nM]
10	5	9.72	Cc1cccc(C)c1NC(=O)N1C/C=C\COc2cccc(c2)Nc2cc1ncn2 [I-1]	10000
37	9	65.1	CCN1CCN(c2ccc(Nc3cc(-n4ccnc4Nc4c(C)cccc4C)ncn3)cc2)CC1 [II-1, 6-(2-((2,6-dimethylphenyl)amino)-1H-imidazol-1-yl)-N-(4-(4-ethylpiperazin-1-yl)phenyl)pyrimidin-4-amine]	19.5
